pEC50: −log10 of the molar value.
Columns and labels:
Leishmania donovani [1] = assay: Antileishmanial activity against Leishmania donovani MHOM/SD/1962/1S-Cl2d axenic amastigotes assessed as inhibition of parasite growth at 15 uM after 24 hrs by alamar blue staining based fluorescent viability microplate assay; format: functional; conditions: read-out: GI
Leishmania donovani [2] = assay: Antileishmanial activity against Leishmania donovani MHOM/SD/1962/1S-Cl2d axenic amastigotes assessed as inhibition of parasite growth at 50 uM after 24 hrs by alamar blue staining based fluorescent viability microplate assay; format: functional; conditions: read-out: GI
[3] = Cytotoxicity against mouse NIH/3T3 cells assessed as reduction in cell viability after 48 hrs by alamar blue dye based assay; conditions: NIH3T3, 48 h
Leishmania donovani [4] = assay: Antileishmanial activity against Leishmania donovani MHOM/SD/1962/1S-Cl2d axenic amastigotes assessed as inhibition of parasite growth at 1 uM after 24 hrs by alamar blue staining based fluorescent viability microplate assay; format: functional; conditions: read-out: GI
Leishmania donovani [5] = assay: Antileishmanial activity against luciferase expressing Leishmania donovani intracellular amastigotes infected in human THP1 cells assessed as inhibition of parasite growth at 1 uM after 48 hrs by Bright-glo luciferase assay; format: functional; conditions: THP-1, 48 h, read-out: GI
[6] = Cytotoxicity against human THP1 cells assessed as reduction in cell viability after 48 hrs by alamar blue dye based assay; conditions: THP-1, 48 h
Leishmania donovani [7] = assay: Antileishmanial activity against luciferase expressing Leishmania donovani intracellular amastigotes infected in human THP1 cells assessed as inhibition of parasite growth after 48 hrs by Bright-glo luciferase assay; format: functional, organism-based; conditions: THP-1, 48 h
[8] = Selectivity index, ratio of EC50 for mouse NIH/3T3 cells to EC50 for Leishmania donovani […] amastigotes; format: toxicity, cell-based; conditions: read-out: Ratio EC50
Leishmania donovani [9] = assay: Antileishmanial activity against Leishmania donovani MHOM/SD/1962/1S-Cl2d axenic amastigotes assessed as inhibition of parasite growth at 5 uM after 24 hrs by alamar blue staining based fluorescent viability microplate assay; format: functional; conditions: read-out: GI
[10] = Selectivity index, ratio of EC50 for human THP1 cells to EC50 for Leishmania donovani axenic amastigotes; format: toxicity, cell-based, THP-1; conditions: THP1 cells versus Leishmania donovani axenic amastigotes, read-out: Ratio EC50
Leishmania donovani [11] = assay: Antileishmanial activity against Leishmania donovani MHOM/SD/1962/1S-Cl2d axenic amastigotes assessed as inhibition of parasite growth after 24 hrs by alamar blue staining based fluorescent viability microplate assay; format: functional, organism-based
Leishmania donovani [12] = assay: Antileishmanial activity against luciferase expressing Leishmania donovani intracellular amastigotes infected in human THP1 cells assessed as inhibition of parasite growth at 5 uM after 48 hrs by Bright-glo luciferase assay; format: functional; conditions: THP-1, 48 h, read-out: GI

| SMILES | inhibition of growth at 15 µM (Leishmania donovani [1]) | inhibition of growth at 50 µM (Leishmania donovani [2]) | other results |
| --- | --- | --- | --- |
| N/C(=N\OC(=O)Nc1ccccc1)c1ccc2ccccc2c1 | 24.9% | 98.8% | – |
| COc1cccc(NC(=O)O/N=C(\N)c2ccc3nonc3c2)c1 | 31.8% | 71.4% | – |
| N/C(=N\OC(=O)Nc1ccccc1)c1ccc2[nH]ccc2c1 | 21.6% | 91.9% | – |
| N/C(=N\OC(=O)Nc1ccccc1)c1ccc2c(c1)OCO2 | 33.9% | 93% | – |
| N/C(=N\OC(=O)Nc1cccc(C(F)(F)F)c1)c1ccc2nonc2c1 | – | 51.4% | – |
| N/C(=N\OC(=O)Nc1ccccc1)c1ccccc1 | 5.4% | 78.4% | – |
| N=C(NOC(=O)Nc1ccccc1)c1ccc2nonc2c1 | 24.2% | 70.1% | – |
| C[C@@H]1[C@H](O)[C@@H](C)/C=C/C=C/C=C/C=C/C=C/C=C/C=C/[C@H](O[C@@H]2O[C@H](C)[C@@H](O)[C@H](N)[C@@H]2O)C[C@@H]2O[C@](O)(C[C@@H](O)C[C@@H](O)[C@H](O)CC[C@@H](O)C[C@@H](O)CC(=O)O[C@H]1C)C[C@H](O)[C@H]2C(=O)O [AMPHOTERICIN B] | – | – | pEC50 [3]: 5.66; inhibition of growth at 1 µM (Leishmania donovani [4]): 99.7%; inhibition of growth at 1 µM (Leishmania donovani [5]): > 90%; pEC50 [6]: 5.68; pEC50 (Leishmania donovani [7]): 6.96 |
| N/C(=N\OC(=O)Cc1ccccc1)c1ccc2nonc2c1 | – | 22.4% | – |
| Cc1ccccc1NC(=O)O/N=C(\N)c1ccc2nonc2c1 | – | 42% | – |
| N/C(=N\OC(=O)Nc1ccccc1)c1ccc2occc2c1 | 48% | 95.2% | – |
| N/C(=N\OC(=O)Nc1ccccc1)c1ccc2[nH]cnc2c1 | – | 72% | – |
| O=C(Nc1ccccc1)ONC(=O)c1ccc2nonc2c1 | 68.2% | 96.2% | selectivity ratio [8]: > 37; pEC50 [3]: < 3.52; inhibition of growth at 5 µM (Leishmania donovani [9]): 54.6%; pEC50 [6]: 4.47; selectivity ratio [10]: 4.2; pEC50 (Leishmania donovani [11]): 5.09; inhibition of growth at 5 µM (Leishmania donovani [12]): 19.9% |
| N/C(=N\OC(=O)Nc1ccccc1Cl)c1ccc2nonc2c1 | – | 29.6% | – |
| Cc1ccc(NC(=O)O/N=C(\N)c2ccc3nonc3c2)cc1 | – | 64.1% | – |
| COc1ccc(NC(=O)O/N=C(\N)c2ccc3nonc3c2)cc1 | – | 46% | – |
| Cc1cccc(NC(=O)O/N=C(\N)c2ccc3nonc3c2)c1 | 44.6% | 67.2% | – |
| N/C(=N\OC(=O)NC1CCCCC1)c1ccc2nonc2c1 | – | 43.9% | – |
| N/C(=N\OC(=O)Nc1ccccc1C(F)(F)F)c1ccc2nonc2c1 | – | 42.1% | – |
| N/C(=N\OC(=O)Nc1ccc(Cl)cc1)c1ccc2nonc2c1 | – | 44% | – |
| COc1ccccc1NC(=O)O/N=C(\N)c1ccc2nonc2c1 | – | 38% | – |
| N/C(=N\OC(=O)Oc1ccccc1)c1ccc2nonc2c1 | – | 26.5% | – |
| N/C(=N\OC(=O)Nc1ccccc1)c1ccc2sccc2c1 | 35.2% | 97.9% | – |
| N/C(=N\OC(=O)c1ccccc1)c1ccc2nonc2c1 | – | 51.1% | – |
| N=C(NOC(=O)Nc1cccc(Cl)c1)c1ccc2nonc2c1 | 87.2% | 94.8% | selectivity ratio [8]: > 71.4; pEC50 [3]: < 3.52; inhibition of growth at 5 µM (Leishmania donovani [9]): 43.4%; pEC50 [6]: 4.10; selectivity ratio [10]: 19; pEC50 (Leishmania donovani [7]): 5.23; pEC50 (Leishmania donovani [11]): 5.38; inhibition of growth at 5 µM (Leishmania donovani [12]): 33.1% |
| N/C(=N\OC(=O)Nc1ccc(C(F)(F)F)cc1)c1ccc2nonc2c1 | – | 51.7% | – |

From ChEMBL document CHEMBL3751841, “Synthesis of carboxyimidamide-substituted benzo[c][1,2,5]oxadiazoles and their analogs, and evaluation of biological activity against Leishmania donovani” (Medchemcomm, 2015)
